± gives the expanded uncertainty stated by the source.
Tests used:
[1] = DTA
[2] = Molar enthalpy of transition or fusion; settings: DSC
[3] = molar heat capacity at constant pressure; settings: 298.15 K, 101.33 kPa, Drop calorimetry

SMILES	Triple point temperature ([1]; Crystal) [K]	Molar enthalpy of transition or fusion ([2]; Crystal) [kcal/mol]	molar heat capacity at constant pressure ([3]; Crystal) [J/K/mol]	other results
c1ccc(-c2ccc(-c3ccc(-c4ccccc4)cc3)cc2)cc1 [1,1':4',1'':4'',1'''-quaterphenyl]	594.4 ± 0.6	12.8 ± 0.359		
c1ccc(-c2ccc(-c3ccc(-c4ccc(-c5ccccc5)cc4)cc3)cc2)cc1 [1,1':4',1'':4'',1''':4''',1''''-quinquephenyl]				Triple point temperature ([1]; Crystal 1): 663.4 ± 3.9 K; Triple point temperature ([1]; Crystal 2): 642.2 ± 3.9 K; Triple point temperature ([1]; Nematic liquid crystal): 696 ± 3.9 K; Molar enthalpy of transition or fusion ([2]; Crystal 1): 11.7 ± 0.956 kcal/mol; Molar enthalpy of transition or fusion ([2]; Crystal 2): 0.12 ± 0.0717 kcal/mol; Molar enthalpy of transition or fusion ([2]; Nematic liquid crystal): 0.382 ± 0.0956 kcal/mol; molar heat capacity at constant pressure ([3]; Crystal 2): 455.5 ± 11 J/K/mol
c1ccc(-c2cccc(-c3ccccc3)c2)cc1 [m-terphenyl]	361.8 ± 0.7	6.09 ± 0.167		
c1ccc(-c2cccc(-c3cccc(-c4ccccc4)c3)c2)cc1 [metaquaterphenyl]	360 ± 0.4	6.62 ± 0.191	359.5 ± 8.4	
c1ccc(-c2ccccc2-c2ccccc2-c2ccccc2)cc1 [o-quaterphenyl]	390.6 ± 0.5	6.5 ± 0.167	359.1 ± 8.3	
c1ccc(-c2ccccc2-c2ccccc2)cc1 [o-terphenyl]	329.4 ± 0.4	4.06 ± 0.12		
c1ccc(-c2ccc(-c3ccccc3)cc2)cc1 [p-terphenyl]	490.9 ± 0.6	7.86 ± 0.215		

Second part, led by results:

Triple point temperature ([1]; Crystal) [K]	Molar enthalpy of transition or fusion ([2]; Crystal) [kcal/mol]	molar heat capacity at constant pressure ([3]; Crystal) [J/K/mol]	SMILES	other results
387.1 ± 0.4	7.46 ± 0.191	443.7 ± 10	c1ccc(-c2cccc(-c3cccc(-c4cccc(-c5ccccc5)c4)c3)c2)cc1 [1,1':3',1'':3'',1'':3'',1''''-quinquephenyl]	
428.8 ± 0.5	7.74 ± 0.191	444.3 ± 10	c1ccc(-c2ccccc2-c2ccccc2-c2ccccc2-c2ccccc2)cc1 [o-quinquephenyl]	
